In US9474759B2 (priority 2011, dated 2016):

What was measured:
FCV = assay: Cell culture system, FCV replication in CRFK cells (Example 3); format: cell-based, feline calicivirus; conditions: Feline calicivirus; cell-based assay, CRFK cells; read-out: IC50 against FCV replication
[1] = biological target: Norwalk virus 3CL protease (NV3CL protease), recombinant (Norovirus, UniProt Q83883); assay: Recombinant NV protease FRET inhibition assay (Edans-[…]-Dabcyl substrate), FIG. 4; format: biochemical; conditions: 2.5 μM enzyme, 300 nM Edans-EPDFHLQGPEDLAK-Dabcyl, 30 min incubation, 30° C., pH 8.0
Chain of Norwalk virus 3CL protease (NV3CL protease), recombinant (Q83883 1101-1281): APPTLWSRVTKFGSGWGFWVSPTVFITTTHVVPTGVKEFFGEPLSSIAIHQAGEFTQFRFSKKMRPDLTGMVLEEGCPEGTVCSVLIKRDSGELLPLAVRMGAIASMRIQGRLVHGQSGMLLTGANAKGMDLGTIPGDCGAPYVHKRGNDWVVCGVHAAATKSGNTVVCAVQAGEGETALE
Protocol: After a 30 minute incubation period, 5 μL of 12 μM Edans-[…]-Dabcyl (SEQ ID NO:1) substrate in DMSO was then added and the increase in fluorescence was monitored for 30 minutes at an excitation and emission wavelength of 360 and 460 nm, respectively. Using a HORIBA FluoroMax 4 spectrofluorometer. Hydrolysis curves were linear. The final enzyme and substrate concentrations were 2.5 μM and 300 nM, respectively. […] Furthermore, the nature of the cap was also important (compare, for example, inhibitors A and D).

[2] = tested on: norovirus (NV replicon-harboring HG23 cells); assay: NV replicon-harboring cells (HG23), NV genome levels by qRT-PCR (Example 1); format: cell-based, Norwalk virus; conditions: read-out: ED50, effective dose that inhibits 50% of norovirus replication, NV genome levels at 24 hrs post-treatment

`CC(C)C[C@H](NC(=O)OCc1ccccc1)C(=O)N[C@H](C=O)C[C@@H]1CCNC1=O` [GC373] gave an IC50 (FCV) of 65000 nM, an IC50 [1] of 1820 nM and an EC50 [2] of 2100 nM.
